Measurements from ChEMBL document CHEMBL3885861, “Open TG-GATES”.

Species on record: Rattus norvegicus
Experiment: Open TG-GATES - Regimen: Single
Assay type: toxicity, organism-based, Sprague-Dawley
Parameters: regimen Single, gender Male, age 6 weeks
Conditions: in vivo, po, 0 mg/kg, route gavage, dose level Control; for APTT / Bas / Eos / Fbg / Hb / Lym / MCH / MCHC / MCV / Mono / Neu / PT / Plat / RBC / Ret / WBC: tissue Blood; for KIDNEY_L / KIDNEY_R / KIDNEY_TOTAL: tissue Kidney; for LIVER: tissue Liver; for ALP / ALT / AST / BUN / CRE / Ca / Cl / DBIL / GLC / IP / K / LDH / Na / PL / RALB / TBIL / TC / TG / TP / gamma-GTP: tissue Plasma

Structure (SMILES): OCCN1CCN(CCCN2c3ccccc3Sc3ccc(C(F)(F)F)cc32)CC1 [FLUPHENAZINE]
- TERMINAL_BW (9 h): 197.8 g
- APTT (9 h): 16.6 s
- Bas (9 h): 0%
- Eos (9 h): 0.8%
- Fbg (9 h): 220.8 mg/dL
- Hb (9 h): 12.6 g/dL
- Lym (9 h): 77.6%
- MCH (9 h): 21.7 pg
- MCHC (9 h): 33.1%
- MCV (9 h): 65.6 fL
- Mono (9 h): 9%
- Neu (9 h): 13.2%
- PT (9 h): 12.5 s
- Plat (9 h): 111.9 x10_4/uL
- RBC (9 h): 581.6 x10_4/ul
- Ret (9 h): 8.6%
- WBC (9 h): 107.8 x10_2/uL
- KIDNEY_L (9 h): 0.9 g
- KIDNEY_R (9 h): 0.9 g
- KIDNEY_TOTAL (9 h): 1.9 g
- LIVER (9 h): 8.6 g
- ALP (9 h): 831.6 IU/L
- ALT (9 h): 29.2 IU/L
- AST (9 h): 58.8 IU/L
- BUN (9 h): 11.8 mg/dL
- CRE (9 h): 0.5 mg/dL
- Ca (9 h): 10.3 mg/dL
- Cl (9 h): 103.8 meq/L
- DBIL (9 h): 0.012 mg/dL
- GLC (9 h): 186.4 mg/dL
- IP (9 h): 10.2 mg/dL
- K (9 h): 4.6 meq/L
- LDH (9 h): 86.4 IU/L
- Na (9 h): 137.2 meq/L
- PL (9 h): 145 mg/dL
- RALB (9 h): 3.7 g/dL
- TBIL (9 h): 0.3 mg/dL
- TC (9 h): 84.6 mg/dL
- TG (9 h): 46.8 mg/dL
- TP (9 h): 5.4 g/dL
- gamma-GTP (9 h): 1.2 IU/L
- TERMINAL_BW (24 h): 211.2 g
- APTT (24 h): 16.8 s
- Bas (24 h): 0%
- Eos (24 h): 0.2%
- Fbg (24 h): 217.6 mg/dL
- Hb (24 h): 12.9 g/dL
- Lym (24 h): 80.8%
- MCH (24 h): 22.4 pg
- MCHC (24 h): 33.4%
- MCV (24 h): 67.1 fL
- Mono (24 h): 7.4%
- Neu (24 h): 11.4%
- PT (24 h): 12 s
- Plat (24 h): 113.4 x10_4/uL
- RBC (24 h): 574.6 x10_4/ul
- Ret (24 h): 8%
- WBC (24 h): 137.9 x10_2/uL
- KIDNEY_L (24 h): 0.9 g
- KIDNEY_R (24 h): 1 g
- KIDNEY_TOTAL (24 h): 1.9 g
- LIVER (24 h): 10.7 g
- ALP (24 h): 951.8 IU/L
- ALT (24 h): 38.6 IU/L
- AST (24 h): 69.6 IU/L
- BUN (24 h): 18.8 mg/dL
- CRE (24 h): 0.5 mg/dL
- Ca (24 h): 11.1 mg/dL
- Cl (24 h): 104.2 meq/L
- DBIL (24 h): 0.012 mg/dL
- GLC (24 h): 183.8 mg/dL
- IP (24 h): 8.8 mg/dL
- K (24 h): 4.9 meq/L
- LDH (24 h): 107.4 IU/L
- Na (24 h): 137.4 meq/L
- PL (24 h): 160.8 mg/dL
- RALB (24 h): 4 g/dL
- TBIL (24 h): 0.3 mg/dL
- TC (24 h): 80 mg/dL
- TG (24 h): 134.2 mg/dL
- TP (24 h): 5.8 g/dL
- gamma-GTP (24 h): 1.8 IU/L
